# Where a chain is given by its changes, count along the chain named.
# Assays:
# LuxN [1] = biological target: T1, LuxN (Vibrio campbellii, UniProt A7MRY4); format: cell-based, Vibrio harveyi; conditions: for effect on light production (antagonist activity) / reduction in light production: 1 μM AHL with 20 nM AI-1, V. harveyi TL25; for mechanism of antagonism: IC50 values measured at various concentrations of AI-1
# LuxN [2] = biological target: T1, LuxN; conditions: 1 μM AHL; V. harveyi TL25
# luxN^L166A/H210N = luxN^L166A/H210N (Vibrio campbellii, UniProt A7MRY4, H210N/L166A); conditions: AHLs added at 1 μM
# LuxN^L166A = LuxN^L166A (Vibrio campbellii, UniProt A7MRY4, L166A)
# LuxN^H210N = biological target: T2, LuxN^H210N (Vibrio campbellii, UniProt A7MRY4, H210N); assay: Bioluminescence of V. harveyi XK006 carrying luxN H210N; format: cell-based, Vibrio harveyi; conditions: AHLs supplied at 10 μM
# T2 sequence (A7MRY4 1-849 H210N): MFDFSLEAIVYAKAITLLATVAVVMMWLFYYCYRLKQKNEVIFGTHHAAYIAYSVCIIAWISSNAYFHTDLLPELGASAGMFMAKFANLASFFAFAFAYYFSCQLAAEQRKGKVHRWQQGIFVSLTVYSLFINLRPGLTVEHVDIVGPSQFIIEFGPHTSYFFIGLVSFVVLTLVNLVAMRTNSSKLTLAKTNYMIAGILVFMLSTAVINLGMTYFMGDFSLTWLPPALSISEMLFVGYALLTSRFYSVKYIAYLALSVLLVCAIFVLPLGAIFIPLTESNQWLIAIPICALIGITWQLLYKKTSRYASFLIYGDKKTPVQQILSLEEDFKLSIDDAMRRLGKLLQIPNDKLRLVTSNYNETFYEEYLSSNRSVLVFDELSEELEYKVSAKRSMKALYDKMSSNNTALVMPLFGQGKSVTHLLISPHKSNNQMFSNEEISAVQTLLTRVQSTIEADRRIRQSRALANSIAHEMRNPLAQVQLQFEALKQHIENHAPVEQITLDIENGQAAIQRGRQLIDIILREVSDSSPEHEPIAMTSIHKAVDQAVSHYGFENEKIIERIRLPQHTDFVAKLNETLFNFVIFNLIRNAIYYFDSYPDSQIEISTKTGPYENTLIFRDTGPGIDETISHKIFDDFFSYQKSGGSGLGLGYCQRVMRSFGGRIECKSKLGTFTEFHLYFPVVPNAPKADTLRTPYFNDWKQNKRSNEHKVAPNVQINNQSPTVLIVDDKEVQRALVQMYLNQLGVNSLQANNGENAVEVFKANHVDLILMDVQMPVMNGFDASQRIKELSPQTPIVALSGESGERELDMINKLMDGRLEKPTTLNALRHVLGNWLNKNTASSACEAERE
# LuxN^G147D/Y194H = biological target: T3, LuxN^G147D/Y194H (Vibrio campbellii, UniProt A7MRY4, G147D/Y194H); assay: Bioluminescence of V. harveyi XK006 carrying luxN G147D/Y194H; format: cell-based, Vibrio harveyi
# T3 sequence (A7MRY4 1-849 G147D/Y194H): T2 sequence (A7MRY4 1-849 H210N) with G147D, Y194H, N210H
# luxN^S184I/S230P = biological target: T4, luxN^S184I/S230P (Vibrio campbellii, UniProt A7MRY4, S184I/S230P); assay: Bioluminescence of V. harveyi XK006 carrying luxN S184I/S230P; format: cell-based, Vibrio harveyi
# T4 sequence (A7MRY4 1-849 S184I/S230P): T2 sequence (A7MRY4 1-849 H210N) with S184I, N210H, S230P
# luxN^T159I/Y193K = biological target: T5, luxN^T159I/Y193K (Vibrio campbellii, UniProt A7MRY4, N193K/T159I); assay: Bioluminescence of V. harveyi XK006 carrying luxN T159I/Y193K; format: cell-based, Vibrio harveyi
# T5 sequence (A7MRY4 1-849 T159I/N193K): T2 sequence (A7MRY4 1-849 H210N) with T159I, N193K, N210H
compound,measurement,setting,value
CC(=O)CC(=O)NC1CCOC1=O (stereo not drawn) [3O-C4 HSL],effect on light production (antagonist activity),LuxN [1],did not decrease light production
same,induction of light production,LuxN [2],did not induce light production
CCCC(=O)CC(=O)NC1CCOC1=O (stereo not drawn) [3O-C6 HSL],light production,luxN^L166A/H210N,detected
CCCCCC(=O)CC(=O)NC1CCOC1=O (stereo not drawn) [3O-C8 HSL],detection (light production),LuxN^L166A,only modest detection
same,light production,luxN^L166A/H210N,produced maximal light
CCCC(O)CC(=O)N[C@H]1CCOC1=O (stereo partly drawn) [3OH-C6 HSL],effect on light production (antagonist activity),LuxN [1],little effect on light production
CCCCCCCC(O)CC(=O)N[C@H]1CCOC1=O (stereo partly drawn) [3OH-C10 HSL],reduction in light production,LuxN [1],30 fold
CCCCCCCCCC(O)CC(=O)N[C@H]1CCOC1=O (stereo partly drawn) [3OH-C12 HSL],reduction in light production,LuxN [1],100 fold
CCCCCC(=O)N[C@H]1CCOC1=O [C6 HSL],induction of light production,LuxN^H210N,activated modest light production
same,light production,luxN^L166A/H210N,detected
CCCCCCCCCC(=O)N[C@H]1CCOC1=O [C10 HSL],mechanism of antagonism,LuxN [1],behaved similarly to 3O-C12 HSL
CCCCCCCCCCCC(=O)N[C@H]1CCOC1=O [C12 HSL],response (dose-dependent light production),LuxN^G147D/Y194H,none responded
same,response (dose-dependent light production),luxN^S184I/S230P,none responded
same,response (dose-dependent light production),luxN^T159I/Y193K,none responded
phenoxy-thiolactone [PTL],mechanism of antagonism,LuxN [1],behaved similarly to 3O-C12 HSL

# — PMC4275348 (Molecular microbiology, 2014)
